Data as given in article PMC7456477, “Pharmacokinetic Study of Thirteen Ingredients after the Oral Administration of Flos Chrysanthemi Extract in Rats by UPLC-MS/MS” (BioMed Research International, 2020).

Assays:
[1] = Pharmacokinetic study in rat plasma after oral administration of Flos Chrysanthemi extract (UPLC-MS/MS); type: in vivo, Sprague-Dawley rats; settings: rats, oral Flos Chrysanthemi extract 10 g/kg; for AUC(0-inf) / Cmax / Tmax / half-life / AUC / k el: male, Sprague-Dawley, rat; for AUC: read-out: AUC(0 − tn); for k el: read-out: Ke (converted)
Experimental: Six male Sprague-Dawley rats (250 ± 5 g) were purchased from Huafukang Bioscience Co., Inc. (Beijing, China). The rats were adapted to the facility for a week. Before the experiments, rats were fasted for 12 h, although drinking water was readily accessible. Flos Chrysanthemi extract was dissolved in CMC-Na aqueous solution and orally administered to the animals once at 10 g/kg. Blood samples (220 μL) were taken from the orbital venous plexus of rats at 0, 0.03, 0.08, 0.17, 0.25, 0.5, 1, 2, 4, 6, 8, 10, 12, and 24 h after extract administration. Blood samples were promptly centrifuged at 6000 rpm for 10 min, and plasma samples were collected. The obtained plasma was stored at -80°C until analysis. “Drug and Statistics 3.0” software (Medical College of Wannan, China) was used to calculate pharmacokinetic parameters. The animal protocol was approved by the Animal Ethics Committee of Tianjin University of Traditional Chinese Medicine (TCM-LAEC20190056).
Plasma samples from rats orally administered with Flos Chrysanthemi extract (10.0 g/kg) were analysed with UPLC-MS/MS. Plasma concentration-time curves are shown in Figure 3, and the primary pharmacokinetic parameters of each analyte are summarized in Table 6.

[2] = Stability of analytes in rat plasma (QC samples under four storage conditions); type: in vitro ADME; settings: n = 6
Experimental: To study the stability of all compounds in rat plasma, low, medium, and high concentrations of QC samples were tested under the following test conditions: stored at an autosampler for 12 hours, stored at room temperature for 6 hours, put through three freeze/thaw cycles, and stored at -80°C for 14 days. Three QC concentrations were tested for each of the above conditions.
The stability of all 13 analytes during sample collection and processing was evaluated with the various storage conditions being tested on spiked plasma samples at three QC concentrations.

[3] = spiked concentration 2000 ng/mL
[4] = spiked concentration 1000 ng/mL

Row | Structure (SMILES) | AUC(0-inf) ([1]; plasma, n = 6) | Cmax ([1]; plasma, n = 6) | Tmax ([1]; plasma, n = 6) | half-life ([1]; plasma, n = 6) | AUC ([1]; plasma, n = 6) | k el ([1]; plasma, n = 6) | Measured concentration, -80°C for 14 days ([2]; spiked concentration 10 ng/mL) | Measured concentration, Autosampler for 12 h ([2]; spiked concentration 10 ng/mL) | Measured concentration, Room temperature for 6 h ([2]; spiked concentration 10 ng/mL) | Measured concentration, Three freeze-thaw cycles ([2]; spiked concentration 10 ng/mL) | Measured concentration, -80°C for 14 days ([2]; spiked concentration 5 ng/mL) | Measured concentration, Autosampler for 12 h ([2]; spiked concentration 5 ng/mL) | Measured concentration, Room temperature for 6 h ([2]; spiked concentration 5 ng/mL) | Measured concentration, Three freeze-thaw cycles ([2]; spiked concentration 5 ng/mL) | Measured concentration, -80°C for 14 days ([2]; spiked concentration 50 ng/mL) | Measured concentration, Autosampler for 12 h ([2]; spiked concentration 50 ng/mL) | Measured concentration, Room temperature for 6 h ([2]; spiked concentration 50 ng/mL) | Measured concentration, Three freeze-thaw cycles ([2]; spiked concentration 50 ng/mL) | Measured concentration, -80°C for 14 days [2, 4] | Measured concentration, Autosampler for 12 h [2, 4] | further results
1 | O=C(O)[C@H]1O[C@@H](Oc2cc(O)c3c(=O)cc(-c4ccc(O)c(O)c4)oc3c2)[C@H](O)[C@@H](O)[C@@H]1O [Luteolin 7-O-glucuronide] | 6730 ± 2280 ng·h/mL | 749 ± 195 ng/mL | 30 ± 16.2 min | 370 ± 85.8 min | 6450 ± 1810 ng·h/mL | 3.33e-05 s⁻¹ | 8.8 ± 0.2 ng/mL | 9.6 ± 0.3 ng/mL | 10.9 ± 0.8 ng/mL | 11.1 ± 0.1 ng/mL | – | – | – | – | – | – | – | – | – | – | Measured concentration, -80°C for 14 days ([2]; spiked concentration 100 ng/mL): 99.7 ± 0.3 ng/mL; Measured concentration, Autosampler for 12 h ([2]; spiked concentration 100 ng/mL): 90.7 ± 0.4 ng/mL; Measured concentration, Room temperature for 6 h ([2]; spiked concentration 100 ng/mL): 110.9 ± 1.2 ng/mL; Measured concentration, Three freeze-thaw cycles ([2]; spiked concentration 100 ng/mL): 112.6 ± 0.5 ng/mL; Measured concentration, -80°C for 14 days [2, 3]: 1930.7 ± 22.5 ng/mL; Measured concentration, Autosampler for 12 h [2, 3]: 1960.1 ± 38.5 ng/mL; Measured concentration, Room temperature for 6 h [2, 3]: 2214.4 ± 17.9 ng/mL; Measured concentration, Three freeze-thaw cycles [2, 3]: 2225.7 ± 9.3 ng/mL
2 | O=C(/C=C/c1ccc(O)c(O)c1)O[C@@H]1C[C@](O)(C(=O)O)C[C@@H](O)[C@H]1O [Chlorogenic acid] | 494 ± 205 ng·h/mL | 194 ± 56.4 ng/mL | – | 12 ± 10.2 min | 426 ± 139 ng·h/mL | 0.00112 s⁻¹ | – | – | – | – | 5.2 ± 0.1 ng/mL | 5.1 ± 0.1 ng/mL | 5.8 ± 0.1 ng/mL | 5.8 ± 0.1 ng/mL | 44.4 ± 0.3 ng/mL | 43.5 ± 0.7 ng/mL | 49.7 ± 2.3 ng/mL | 54.7 ± 0.4 ng/mL | 1117.1 ± 2.0 ng/mL | 1084.8 ± 13.6 ng/mL | T max ([1]; plasma, n = 6): 15 ± 0 min; Measured concentration, Room temperature for 6 h [2, 4]: 1079.2 ± 8.3 ng/mL; Measured concentration, Three freeze-thaw cycles [2, 4]: 1123.5 ± 7.3 ng/mL
3 | O=C(/C=C/c1ccc(O)c(O)c1)O[C@@H]1[C@H](O)C[C@@](O)(C(=O)O)C[C@H]1OC(=O)/C=C/c1ccc(O)c(O)c1 [Isochlorogenic acid C] | 405 ± 228 ng·h/mL | 101 ± 73.3 ng/mL | 24 ± 18.6 min | 14.4 ± 13.2 min | 309 ± 149 ng·h/mL | 0.0013 s⁻¹ | – | – | – | – | 5.6 ± 0.1 ng/mL | 4.6 ± 0.4 ng/mL | 5.2 ± 0.2 ng/mL | 5.9 ± 0.1 ng/mL | 43.3 ± 0.3 ng/mL | 45.1 ± 0.6 ng/mL | 48.1 ± 0.8 ng/mL | 55.3 ± 0.4 ng/mL | 1080.3 ± 37.8 ng/mL | 1047.3 ± 12.4 ng/mL | Measured concentration, Room temperature for 6 h [2, 4]: 1049.2 ± 32.0 ng/mL; Measured concentration, Three freeze-thaw cycles [2, 4]: 1052.4 ± 38.4 ng/mL
4 | COc1ccc(-c2cc(=O)c3c(O)cc(O[C@@H]4O[C@H](CO)[C@@H](O)[C@H](O)[C@H]4O)cc3o2)cc1 [Tilianin] | – | – | – | – | – | – | 10.2 ± 0.2 ng/mL | 9.3 ± 0.1 ng/mL | 9.9 ± 0.3 ng/mL | 11.3 ± 0.2 ng/mL | – | – | – | – | – | – | – | – | – | – | Detection in plasma over the sampling time ([1]; result in words): detected only at the first few blood sampling points; Measured concentration, -80°C for 14 days ([2]; spiked concentration 1 ng/mL): 0.9 ± 0.1 ng/mL; Measured concentration, Autosampler for 12 h ([2]; spiked concentration 1 ng/mL): 0.9 ± 0.1 ng/mL; Measured concentration, Room temperature for 6 h ([2]; spiked concentration 1 ng/mL): 1.1 ± 0.1 ng/mL; Measured concentration, Three freeze-thaw cycles ([2]; spiked concentration 1 ng/mL): 1.0 ± 0.1 ng/mL; Measured concentration, -80°C for 14 days ([2]; spiked concentration 200 ng/mL): 188.6 ± 0.9 ng/mL; Measured concentration, Autosampler for 12 h ([2]; spiked concentration 200 ng/mL): 179.0 ± 1.2 ng/mL; Measured concentration, Room temperature for 6 h ([2]; spiked concentration 200 ng/mL): 226.4 ± 0.2 ng/mL; Measured concentration, Three freeze-thaw cycles ([2]; spiked concentration 200 ng/mL): 209.6 ± 0.3 ng/mL
